In brackets after ≈: the same amount, converted by molar mass. Activity calls are given as the source filed them. The calls are words filed in the database; no cut-off is given here.

The test system of experiment [1] is Staphylococcus aureus. The experiment is described as follows: Antibacterial activity against methicillin-sensitive Staphylococcus aureus 8325-4 assessed as growth inhibition by CLSI broth microdilution method. It is filed as functional. Background: In broth dilution the organism is exposed to a series of concentrations in liquid medium.
Experiment [2] concerns Enterococcus faecalis. The experiment is described as follows: Antibacterial activity against vancomycin-resistant Enterococcus faecalis ATCC 51575 assessed as growth inhibition by CLSI broth microdilution method. It is filed as functional.
Experiment [3] has as its system Staphylococcus aureus. The experiment is described as follows: microbe, parasite or virus in culture. It is filed as functional. The note with it: ATCC 33591.
Description: Antibacterial activity against methicillin-resistant Staphylococcus aureus ATCC 33591 assessed as growth inhibition by CLSI broth microdilution method
Experiment [4] relates to Enterococcus faecalis. Description: microbe, parasite or virus in culture. In kind it is functional. The note with it: ATCC 19433.
Description: Antibacterial activity against vancomycin-sensitive Enterococcus faecalis ATCC 19433 assessed as growth inhibition by CLSI broth microdilution method
Experiment [5] addresses T1, Cell division protein FtsZ (Staphylococcus aureus) (UniProt P0A031).
T1 sequence (whole entry): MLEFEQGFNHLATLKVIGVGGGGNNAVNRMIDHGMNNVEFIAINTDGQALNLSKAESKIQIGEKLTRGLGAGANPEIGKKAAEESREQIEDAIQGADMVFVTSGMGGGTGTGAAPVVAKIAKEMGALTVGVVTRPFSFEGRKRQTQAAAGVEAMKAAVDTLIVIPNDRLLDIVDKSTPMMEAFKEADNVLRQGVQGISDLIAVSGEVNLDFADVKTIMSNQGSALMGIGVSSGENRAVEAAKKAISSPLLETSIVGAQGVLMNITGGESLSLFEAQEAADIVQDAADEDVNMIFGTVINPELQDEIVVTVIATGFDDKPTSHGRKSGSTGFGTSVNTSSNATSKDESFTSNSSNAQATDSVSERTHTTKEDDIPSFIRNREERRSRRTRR
Description: Stimulation of Staphylococcus aureus ATCC 33591 FtsZ self-polymerization expressed in Escherichia coli BL21 (DE3) at 40 ug/mL by light scattering assay.

For experiment [6], the target named is Tubulin beta chain (Sus scrofa) (UniProt P02554). Description: Stimulation of porcine MAP-rich beta-tubulin polymerization at 40 ug/mL by light scattering assay.
For experiment [7] the target is unchanged. The experiment is described as follows: Inhibition of porcine MAP-rich beta-tubulin polymerization at 10 ug/mL by light scattering assay.

Chain of Tubulin beta chain (Sus scrofa) (P02554 whole entry): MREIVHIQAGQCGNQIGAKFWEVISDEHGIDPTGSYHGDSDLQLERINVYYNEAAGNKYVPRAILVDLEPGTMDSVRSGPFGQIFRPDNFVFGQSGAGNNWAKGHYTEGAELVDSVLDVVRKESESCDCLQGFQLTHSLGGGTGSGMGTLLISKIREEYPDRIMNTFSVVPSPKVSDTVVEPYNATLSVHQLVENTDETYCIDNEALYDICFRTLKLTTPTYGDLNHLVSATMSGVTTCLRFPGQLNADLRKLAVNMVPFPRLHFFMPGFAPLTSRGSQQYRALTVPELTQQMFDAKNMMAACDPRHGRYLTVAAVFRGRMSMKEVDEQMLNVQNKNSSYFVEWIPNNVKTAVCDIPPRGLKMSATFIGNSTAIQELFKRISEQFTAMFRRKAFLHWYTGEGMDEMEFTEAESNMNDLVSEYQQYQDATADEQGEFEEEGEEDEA

For the compound `CCC[C@@H]1C[C@@H](C(=O)N[C@@H]([C@H]2O[C@H](SC)[C@H](O)[C@@H](O)[C@H]2O)[C@H](C)Cl)N(C)C1` [CLINDAMYCIN], the MIC90 in experiment [1] was 0.031 µg/mL (≈ 0.0729 µM); in experiment [2], over 64 µg/mL; in experiment [3], over 64 µg/mL; in experiment [4], 2 µg/mL (≈ 4.71 µM).

For the compound `CC(C)(C)c1ccc(-c2cccc3cc(-c4ccc(C(=O)O)cc4CN)ccc23)cc1`, the MIC90 in experiment [1], in experiment [2], in experiment [3] and in experiment [4] was over 64 µg/mL in each case.

In the case of `CC(C)(C)c1ccc(-c2cccc3cc(-c4ccc([N+](C)(C)C)cc4)ccc23)cc1.[I-]`, the MIC90 worked out at 1 µg/mL in experiment [1], 4 µg/mL in experiment [2], 2 µg/mL in experiment [3] and 4 µg/mL in experiment [4].

Take `C[N+](C)(C)c1ccc(-c2ccc3c(-c4ccc(-c5ccccc5)cc4)cccc3c2)cc1.[I-]`: the MIC90 turned out to be 1 µg/mL in experiment [1], 2 µg/mL in experiment [2], 1 µg/mL in experiment [3] and 2 µg/mL in experiment [4].

As to `CNCc1ccccc1-c1ccc2c(-c3ccc(C(C)(C)C)cc3)cccc2c1`, the MIC90 in experiment [1], in experiment [2], in experiment [3] and in experiment [4] was 2 µg/mL (≈ 5.27 µM) each time.

Turning to `C[n+]1cc2c3c(ccc2c2ccc4cc5c(cc4c21)OCO5)OCO3` [SANGUINARIUM], the MIC90 in experiment [1] worked out at 2 µg/mL; in experiment [2], 16 µg/mL; in experiment [3], 2 µg/mL; in experiment [4], 8 µg/mL.

Consider `CC(C)(C)c1ccc(-c2cccc3cc(-c4ccccc4CCN)ccc23)cc1`, for which, in experiment [5], the outcome was Active. Also, the MIC90 in experiment [1] came out at 2 µg/mL (≈ 5.27 µM); in experiment [2] it was 4 µg/mL (≈ 10.5 µM); in experiment [3] it was 2 µg/mL (≈ 5.27 µM); in experiment [4], 4 µg/mL (≈ 10.5 µM).

On to `NCc1cccc(-c2ccc3c(-c4cccc(-c5ccccc5)c4)cccc3c2)c1`, for which the MIC90 in experiment [1] is 2 µg/mL (≈ 5.19 µM); in experiment [2] it was 8 µg/mL (≈ 20.8 µM); in experiment [3], 4 µg/mL (≈ 10.4 µM); in experiment [4], 4 µg/mL (≈ 10.4 µM).

Consider `CC(C)(C)c1ccc(-c2cccc3cc(-c4ccccc4C[N+](C)(C)C)ccc23)cc1.[I-]`, for which the result in experiment [5] was Active. The MIC90 in experiment [1] came to 0.5 µg/mL; in experiment [2] it was 4 µg/mL; in experiment [3], 0.5 µg/mL; in experiment [4] it was 4 µg/mL. Besides, the outcome in experiment [6] was inactive.

With `COC(=O)c1ccc(-c2ccc3c(-c4ccc(C(C)(C)C)cc4)cccc3c2)c(C[N+](C)(C)C)c1.[I-]`, the MIC90 is 1 µg/mL in experiment [1], 8 µg/mL in experiment [2], 2 µg/mL in experiment [3] and 4 µg/mL in experiment [4].

As for `CC(C)(C)c1ccc(-c2cccc3cc(-c4cccc(N)c4)ccc23)cc1`, the MIC90 in experiment [1], in experiment [2], in experiment [3] and in experiment [4] was over 64 µg/mL throughout.

`C[N+](C)(C)c1cccc(-c2ccc3c(-c4ccc(-c5ccccc5)cc4)cccc3c2)c1.[I-]`: the MIC90 was determined as 0.5 µg/mL in experiment [1], 4 µg/mL in experiment [2], 1 µg/mL in experiment [3] and 2 µg/mL in experiment [4].

As for `C[N+](C)(C)c1ccc(-c2ccc3c(-c4ccc(F)cc4)cccc3c2)cc1.[I-]`, the MIC90 in experiment [1], in experiment [2], in experiment [3] and in experiment [4] was 4 µg/mL throughout.

Consider `CC(C)(C)c1ccc(-c2cccc3cc(-c4cccc([N+](C)(C)C)c4)ccc23)cc1.[I-]`, for which the MIC90 turned out to be 0.5 µg/mL in experiment [1], 2 µg/mL in experiment [2], 1 µg/mL in experiment [3] and 2 µg/mL in experiment [4].

With `CNCc1cc(C(=O)OC)ccc1-c1ccc2c(-c3ccc(C(C)(C)C)cc3)cccc2c1`, the MIC90 in experiment [1] came out at 4 µg/mL (≈ 9.14 µM); in experiment [2], 4 µg/mL (≈ 9.14 µM); in experiment [3], 4 µg/mL (≈ 9.14 µM); in experiment [4] it was 8 µg/mL (≈ 18.3 µM).

Take `C[N+](C)(C)c1cccc(-c2ccc3c(-c4ccc(F)cc4)cccc3c2)c1.[I-]`: the MIC90 in experiment [1] amounted to 1 µg/mL; in experiment [2], 8 µg/mL; in experiment [3], 4 µg/mL; in experiment [4] it was 8 µg/mL.

Regarding `CN(C)Cc1ccccc1-c1ccc2c(-c3ccc(C(C)(C)C)cc3)cccc2c1`, the MIC90 in experiment [1] was 32 µg/mL (≈ 81.3 µM); in experiment [2], over 64 µg/mL; in experiment [3] it was over 64 µg/mL; in experiment [4], over 64 µg/mL.

Regarding `CC[C@H]1OC(=O)[C@H](C)[C@@H](O[C@H]2C[C@@](C)(OC)[C@@H](O)[C@H](C)O2)[C@H](C)[C@@H](O[C@@H]2O[C@H](C)C[C@H](N(C)C)[C@H]2O)[C@](C)(O)C[C@@H](C)C(=O)[C@H](C)[C@@H](O)[C@]1(C)O` [ERYTHROMYCIN], the MIC90 was 0.13 µg/mL (≈ 0.177 µM) in experiment [1], over 64 µg/mL in experiment [2], over 64 µg/mL in experiment [3] and 1 µg/mL (≈ 1.36 µM) in experiment [4].

As for `CC(C)(C)c1ccc(-c2cccc3cc(-c4ccccc4N)ccc23)cc1`, the MIC90 in experiment [1], in experiment [2], in experiment [3] and in experiment [4] was over 64 µg/mL each time.

In the case of `CC(C)(C)c1ccc(-c2cccc3cc(-c4ccccc4CN=C(N)N)ccc23)cc1`, the MIC90 in experiment [1] is 1 µg/mL (≈ 2.45 µM); in experiment [2], 2 µg/mL (≈ 4.91 µM); in experiment [3], 1 µg/mL (≈ 2.45 µM); in experiment [4], 2 µg/mL (≈ 4.91 µM).

For the compound `COC(=O)c1ccc(-c2ccc3c(-c4ccc(C(C)(C)C)cc4)cccc3c2)c(CN(C)C)c1`, the MIC90 in experiment [1], in experiment [2], in experiment [3] and in experiment [4] was over 64 µg/mL throughout.

Regarding `C[N+](C)(C)c1cccc(-c2ccc3c(-c4cccc(-c5ccccc5)c4)cccc3c2)c1.[I-]`, the MIC90 is 1 µg/mL in experiment [1], 2 µg/mL in experiment [2], 1 µg/mL in experiment [3] and 2 µg/mL in experiment [4].

For `COC(=O)c1ccc(-c2ccc3c(-c4ccc(C(C)(C)C)cc4)cccc3c2)c(CN)c1`, the MIC90 in experiment [1] is 2 µg/mL (≈ 4.72 µM); in experiment [2], 16 µg/mL (≈ 37.8 µM); in experiment [3] it was 2 µg/mL (≈ 4.72 µM); in experiment [4], 16 µg/mL (≈ 37.8 µM).

`C[N+](C)(C)Cc1cccc(-c2ccc3c(-c4cccc(-c5ccccc5)c4)cccc3c2)c1.[I-]`: the MIC90 in experiment [1] came to 0.5 µg/mL; in experiment [2], 4 µg/mL; in experiment [3], 1 µg/mL; in experiment [4], 4 µg/mL.

As to `CN(C)Cc1cccc(-c2ccc3c(-c4cccc(-c5ccccc5)c4)cccc3c2)c1`, the MIC90 in experiment [1] was found to be 4 µg/mL (≈ 9.67 µM); in experiment [2], 16 µg/mL (≈ 38.7 µM); in experiment [3], 8 µg/mL (≈ 19.3 µM); in experiment [4], 16 µg/mL (≈ 38.7 µM).

`C[N+](C)(C)c1ccc(-c2ccc3c(-c4cccc(-c5ccccc5)c4)cccc3c2)cc1.[I-]`: the MIC90 in experiment [1] is 1 µg/mL; in experiment [2] it was 2 µg/mL; in experiment [3], 1 µg/mL; in experiment [4], 2 µg/mL.

Take `Cc1ccccc1-c1ccc2c(-c3ccc(C(C)(C)C)cc3)cccc2c1`: the MIC90 in experiment [1], in experiment [2], in experiment [3] and in experiment [4] was over 64 µg/mL each time.

For `COC(=O)c1ccc(-c2ccc3c(-c4ccc(C(C)(C)C)cc4)cccc3c2)c(CN=C(N)N)c1`, the MIC90 in experiment [1] was found to be 1 µg/mL (≈ 2.15 µM); in experiment [2], 4 µg/mL (≈ 8.59 µM); in experiment [3], 1 µg/mL (≈ 2.15 µM); in experiment [4], 2 µg/mL (≈ 4.3 µM).

As for `C[N+](C)(C)c1cccc(-c2ccc3c(-c4ccc(C(F)(F)F)cc4)cccc3c2)c1.[I-]`, the MIC90 in experiment [1] is 1 µg/mL; in experiment [2] it was 8 µg/mL; in experiment [3] it was 4 µg/mL; in experiment [4], 8 µg/mL.

For `CN(C)[C@@H]1C(O)=C(C(N)=O)C(=O)[C@@]2(O)C(O)=C3C(=O)c4c(O)cccc4[C@@](C)(O)[C@H]3C[C@@H]12` [TETRACYCLINE], the MIC90 in experiment [1] is 0.063 µg/mL (≈ 0.142 µM); in experiment [2], over 64 µg/mL; in experiment [3], 64 µg/mL (≈ 144 µM); in experiment [4] it was 0.5 µg/mL (≈ 1.13 µM).

Consider `COC(=O)Nc1nc2cc(C(=O)c3cccs3)ccc2[nH]1`, for which, in experiment [7], the inhibition entry was “Active”.

Consider `CN[C@H](CC(C)C)C(=O)N[C@H]1C(=O)N[C@@H](CC(N)=O)C(=O)N[C@H]2C(=O)N[C@H]3C(=O)N[C@H](C(=O)N[C@H](C(=O)O)c4cc(O)cc(O)c4-c4cc3ccc4O)[C@H](O)c3ccc(c(Cl)c3)Oc3cc2cc(c3O[C@@H]2O[C@H](CO)[C@@H](O)[C@H](O)[C@H]2O[C@H]2C[C@](C)(N)[C@H](O)[C@H](C)O2)Oc2ccc(cc2Cl)[C@H]1O` [VANCOMYCIN], for which the outcome in experiment [5] was inactive. For the same compound, the MIC90 was 1 µg/mL (≈ 0.69 µM) in experiment [1], over 64 µg/mL in experiment [2], 2 µg/mL (≈ 1.38 µM) in experiment [3] and 1 µg/mL (≈ 0.69 µM) in experiment [4].

Consider `Cc1onc(-c2ccccc2)c1C(=O)N[C@@H]1C(=O)N2[C@@H]1SC(C)(C)[C@@H]2C(=O)O` [OXACILLIN], for which the MIC90 in experiment [1] was 0.063 µg/mL (≈ 0.157 µM); in experiment [2], over 64 µg/mL; in experiment [3], over 64 µg/mL; in experiment [4] it was 8 µg/mL (≈ 19.9 µM).

In the case of `COc1ccc2c(c[n+](C)c3c4cc5c(cc4ccc23)OCO5)c1OC` [CHELERYTHRINE], the MIC90 in experiment [1] was determined as 4 µg/mL; in experiment [2], 32 µg/mL; in experiment [3], 4 µg/mL; in experiment [4] it was 32 µg/mL.
